Like-named read-outs stand apart in the source and are kept apart here. Where no end group is shown, it is not given here.

Experiment [1] deals with T1, ACE (Homo sapiens, UniProt P12821).
T1 construct: purchased Tong Ren Chemical Co., Ltd. (Institute of Tongren Chemistry, Japan) ACE Kit-WST
In words: ACE inhibitory activity of synthetic peptides. Format: biochemical. As to the method:
The ACE inhibitory activity was determined by ACE Kit-WST (Institute of Tongren Chemistry, Japan). Taking ultra-pure water as blank control, the inhibitory activity of ACE was calculated.
Pinhibitoryrate%=ABlack1-ASample/ABlack1-ABlack2×100%
Each experimental procedure was performed three times, and data were expressed as the mean ± standard deviation. Statistical analyses were conducted by one-way analysis of variance using IBM SPSS 20 (SPSS Inc., Chicago, USA). Duncan’s test was applied to determine the significance of multiple groups. The P-value <0.05 was considered statistically significant.
All the peptides were commercially synthesized and their ACE activity was determined (Figure 8).

For experiment [2], the system named is ACE. To be noted: 0.05 mg/L; peptide from broccoli; ref Zhang et al. ([21]); cited from earlier work. An excerpt: It is of high research value to develop efficient antihypertensive products around botanical angiotensin- I converting enzyme (ACE) inhibitory peptides ([11]). Hypertension is a standard chronic disease and the most critical risk factor for cardio-cerebrovascular disease ([12]). The pathogenesis of hypertension is associated with the renin tensin system (Renin-Angiotensin System, RAS) ([13], [14]). RAS contains two key enzymes: hypertension proteinase (Renin) and ACE ([15]). Therefore, inhibiting the enzyme activity of Renin and ACE is one of the treatments for hypertension ([16], [17]). ACE b ...

Where [3] appears, read: synthetic peptide, IC50 used as inhibitor concentration in kinetics, read-out: IC50 (peptide concentration in Table 7) (converted).

T1 sequence (P12821 30-1306, species assumed): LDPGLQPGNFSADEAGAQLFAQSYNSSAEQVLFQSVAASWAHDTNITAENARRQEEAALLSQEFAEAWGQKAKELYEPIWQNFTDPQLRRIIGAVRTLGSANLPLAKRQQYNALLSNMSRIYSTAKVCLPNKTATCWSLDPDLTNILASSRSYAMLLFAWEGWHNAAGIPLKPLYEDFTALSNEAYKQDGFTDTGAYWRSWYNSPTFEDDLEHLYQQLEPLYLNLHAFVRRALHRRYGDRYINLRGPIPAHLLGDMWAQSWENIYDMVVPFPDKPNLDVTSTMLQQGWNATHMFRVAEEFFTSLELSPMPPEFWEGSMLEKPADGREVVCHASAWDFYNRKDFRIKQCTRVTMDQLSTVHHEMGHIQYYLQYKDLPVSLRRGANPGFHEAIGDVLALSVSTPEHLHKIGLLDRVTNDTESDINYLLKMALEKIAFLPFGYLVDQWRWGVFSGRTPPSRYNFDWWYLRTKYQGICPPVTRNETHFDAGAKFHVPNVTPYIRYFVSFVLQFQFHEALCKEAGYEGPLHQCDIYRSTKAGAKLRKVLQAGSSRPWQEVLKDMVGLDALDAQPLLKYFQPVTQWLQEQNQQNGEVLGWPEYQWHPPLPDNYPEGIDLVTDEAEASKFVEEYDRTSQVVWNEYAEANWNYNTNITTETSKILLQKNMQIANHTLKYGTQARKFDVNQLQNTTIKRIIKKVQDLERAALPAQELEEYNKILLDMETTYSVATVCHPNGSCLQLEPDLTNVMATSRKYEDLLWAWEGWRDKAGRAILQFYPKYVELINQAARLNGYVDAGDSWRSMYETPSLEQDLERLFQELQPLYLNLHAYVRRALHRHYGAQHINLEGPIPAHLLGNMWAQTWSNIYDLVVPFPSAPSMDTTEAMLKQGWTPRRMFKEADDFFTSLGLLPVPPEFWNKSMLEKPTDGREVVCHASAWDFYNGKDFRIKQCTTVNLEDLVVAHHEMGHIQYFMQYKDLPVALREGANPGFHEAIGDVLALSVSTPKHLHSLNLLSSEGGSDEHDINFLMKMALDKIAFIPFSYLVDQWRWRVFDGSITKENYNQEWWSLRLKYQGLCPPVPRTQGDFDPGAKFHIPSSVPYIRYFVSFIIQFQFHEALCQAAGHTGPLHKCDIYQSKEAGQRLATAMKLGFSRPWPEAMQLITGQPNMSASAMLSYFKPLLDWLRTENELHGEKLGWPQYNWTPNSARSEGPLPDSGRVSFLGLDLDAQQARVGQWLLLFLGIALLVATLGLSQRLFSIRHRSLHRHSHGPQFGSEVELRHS

With ERFNVE [ERFNVE], the IC50 on ACE [1] (setting [3]) was 3340 µM. Same read-out and setting: under FDDKLD [FDDKLD] stands 931 µM. As for “Lys - Ser - Val - Leu - Leu - Lys - Phe [peptide from broccoli digest, literature]”, the ACE inhibition rate with ACE [2] is 42.86%. In the case of MELVLK [MELVLK], the IC50 at ACE [1] (chemosynthetic peptide, purity greater than 95%, read-out: IC50 (converted)) is 2600 µM. Turning to TELVLK [TELVLK], the IC50 on ACE [1] (setting [3]) was 1400 µM.

The values are drawn from paper PMC9941179, “Preparation and activity evaluation of angiotensin-I converting enzyme inhibitory peptides from protein hydrolysate of mulberry leaf” (Frontiers in Nutrition, 2023).
